For assay [1], the target named is T1, PLK1-T210D (human active type PLK1) (Homo sapiens, UniProt P53350, T210D).
T1 construct: a baculovirus expressing full-length human PLK1 of which N terminus is fused with GST; GST (glutathione S-transferase) (N); made in house; host or cells: insect cells (baculovirus)
Nature of the assay: Measurement of the inhibitory effect against PLK1-T210D activity ([γ-33P]ATP, CDC25C-derived peptide substrate). Particulars: 50 μM ATP, 50 μM substrate peptide, 25° C., 20 minutes. The assay is classed as biochemical. How it is done:
It has been known that 210th codon of human PLK1 which originally codes for threonine can be changed to an active type by altering the site so as to code aspartic acid [Molecular and Cellular Biology (Mol. Cell. Biol.), 17th edition, 3408 (1997)]. In order to obtain a human active type PLK1 protein, cDNA of mutated PLK1 (PLK1-T210D) of which 210th codon codes aspartic acid was prepared, by substituting a base in the 210th codon of human PLK1 cDNA. This PLK1-T210D cDNA was integrated into a baculovirus expression vector in the same manner as in the above, expressed in insect cells, and then was purified.
For the measurement of the PLK1 and PLK1-T210D activity, used as a substrate was a synthetic peptide (aspartic acid-glutamic acid-leucine-methionine-glutamic acid-alanine-serine-phenylalanine-alanine-aspartic acid-glutamine-aspartic acid-alanine-lysine), where the serine surrounding sequence of the amino acid sequence No. 198 of CDC25C, which have been reported as the site for PLK1 substrate [EMBO Report, 3rd edition, 341 (2002)], is altered.
The reaction was carried out in accordance with the method of Toyoshima-Morimoto et al. [Nature, Vol. 410, 215-220, (2001)]. The volume of the reaction solution was 21.1 μL and the composition of the reaction buffer was 20 mM of tris-hydrochloric acid buffer (pH 7.4)/10 mM magnesium chloride/0.5 mM dithiothreitol/1 mM EGTA (ethylene glycol-bis(beta-aminoethylether)-N,N,N′,N′,-tetraacetic acid). Thereto, purified PLK 1, 50 μM of the substrate peptide, 50 μM of non-labeled adenosine triphosphate (ATP), and 1 μCi of [γ-33P]-labeled ATP (2000 to 4000 Ci/mmole) were added to react at 25° C. for 20 minutes. Then, 10 μL of 350 mM phosphate buffer was added to the reaction system to terminate the reaction. The resultant solution was spotted onto a multi-screen phosphocellulose filter on a 96-well plate. After the phosphocellulose filter is washed with 75 mM phosphate buffer and then dried, the radioactivity of the substrate was measured with a liquid scintillation counter. The non-labeled ATP and [γ-33P]-labeled ATP was purchased from Amersham Bioscience Corp. and the multi-screen phosphocellulose filter from Millipore Corp., respectively.
The addition of the compound of the present invention to the reaction system was carried out by adding 1.1 μL of the solution as prepared by preliminarily dissolving in dimethylsulfoxide at a 20-fold concentration of the final concentration. A control was provided by adding 1.1 μL of dimethylsulfoxide to the reaction system.

In a further assay the test system is HeLaS3 cells. Nature of the assay: Inhibitory activity against PLK1 at cellular level: ratio of cells arrested at M phase (phospho-histone H3 Ser10, mitotic index). Type of assay: cell-based. Particulars: Homo sapiens, HeLa S3; HeLaS3 cells synchronized at G1/S, 12 hours with compound; concentration inducing 50% of maximal M phase arrest; read-out: Inhibitory effect against cell proliferation. How it is done: For the measurement of the PLK 1 inhibitory effect of the compound at the cellular level, human uterine cervix cell lines HeLaS3 cells were used. The HeLaS3 cell was obtained from American Type Culture Collection (ATTC), and cultured in a CO2-incubator of saturated steam by using Dulbecco's Modified Eagle's Medium containing 10% fetal calf serum at 37° C. in the presence of 5% CO2.
It has been reported that PLK 1 plays an important role in various stages of mitotic phase (M-phase) in mammalian cells (Nature Review Molecular Cell Biology, Vol. 5, 429, (2004)). In fact, when the mammalian cells are treated with PLK 1 siRNA to control the expression level, the cell cycle progression is inhibited and thus the cell is arrested at M phase. Also, when examining the phosphorylation level of serine, 10th residue of histone H3, which is thought to be required for a chromosome condensation in M phase, it is observed that the level is enhanced to a high level. Thus, after treating the cell with the compound according to the present invention; the phosphorylation level of histone H3 was examined by an indirect fluorescent antibody technique, the cells arrested at M phase were identified by using the level thereof as an indicator to analyze the ratio of cells arrested at M phase; and then EC50 value of each compound was calculated to evaluate the PLK 1 inhibitory effect at a cellular level.
First, HeLaS3 cells synchronized at the G1/S phase by a double-thymidine technique were seeded into lysine-treated 96-well plate (Falcon Corp.) at the ratio of 8,000 per one well, and allowed to stand still in the above-mentioned CO2 incubator. […] After terminating the reaction, the reaction solution in wells was removed and replaced with 100 μL of PBS, and then fluorescence images were captured by using InCell Analyzer 1000 (manufactured by GE Amersham) to analyze the ratio of the cells arrested at M phase (Mitotic index) at different view angles. […]

In another assay the target is T2, full-length human PLK1 (Homo sapiens, UniProt P53350).
T2 construct: a baculovirus expressing full-length human PLK1 of which N terminus is fused with GST; GST (glutathione S-transferase) (N, cleaved yes); made in house; host or cells: Spodoptera frugiperda Sf9 insect cells (baculovirus)
Nature of the assay: Measurement of the inhibitory effect against PLK1 activity ([γ-33P]ATP, CDC25C-derived peptide substrate). Particulars: 50 μM ATP, 50 μM substrate peptide, 25° C., 20 minutes. The assay is classed as biochemical. How it is done: First, a baculovirus expressing full-length human PLK1 of which N terminus is fused with GST (glutathione S-transferase) was prepared, and then the PLK1 infected into a Spodoptera frugiperda (Sf)9 insect cell was highly expressed as a GST-fused protein. The cells were recovered and suspended in a lysis buffer (50 mM tris-hydrochloric acid buffer (pH 7.4)/150 mM sodium chloride/1 mM EDTA (ethylenediamine tetraacetic acid)/1 mM dithiothreitol/0.1% polyoxyethylene sorbitan monolaurate) to break cells with sonicator, and supernatant was recovered after a centrifugation. The supernatant was reacted on glutathione sepharose beads, and then the beads were washed with a lysis buffer. Thereafter, the beads were reacted in a lysis buffer containing Precision Protease to recover supernatant. […]
The reaction was carried out in accordance with the method of Toyoshima-Morimoto et al. [Nature, Vol. 410, 215-220, (2001)]. […] After the phosphocellulose filter is washed with 75 mM phosphate buffer and then dried, the radioactivity of the substrate was measured with a liquid scintillation counter. […]

T1 sequence (P53350 whole entry T210D, the tested form may be a part): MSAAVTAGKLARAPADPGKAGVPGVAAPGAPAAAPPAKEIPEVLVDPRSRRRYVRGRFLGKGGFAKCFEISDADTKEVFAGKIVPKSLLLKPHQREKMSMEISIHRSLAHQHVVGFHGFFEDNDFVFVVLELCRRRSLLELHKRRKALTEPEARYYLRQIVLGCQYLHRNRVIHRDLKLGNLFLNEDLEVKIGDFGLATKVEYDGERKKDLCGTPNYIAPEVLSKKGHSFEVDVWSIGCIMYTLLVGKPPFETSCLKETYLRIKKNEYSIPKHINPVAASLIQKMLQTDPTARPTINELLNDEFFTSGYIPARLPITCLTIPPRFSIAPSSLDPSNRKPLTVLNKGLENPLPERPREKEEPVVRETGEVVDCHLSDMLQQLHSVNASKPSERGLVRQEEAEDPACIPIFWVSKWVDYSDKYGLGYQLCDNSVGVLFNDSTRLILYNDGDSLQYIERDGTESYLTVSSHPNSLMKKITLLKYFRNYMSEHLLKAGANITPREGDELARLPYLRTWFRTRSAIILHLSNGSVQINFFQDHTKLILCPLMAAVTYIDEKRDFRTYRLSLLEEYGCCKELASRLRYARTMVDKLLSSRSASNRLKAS
T2 sequence (P53350 whole entry, the tested form may be a part): as the sequence (P53350 whole entry T210D, the tested form may be a part) above, with D210T counted along it

Take `Cc1cccn2c(-c3nc(N[C@@H](C)c4ccc(N)cc4)ncc3C#N)cnc12` [Example 112, 2-{[(1S)-1-(4-aminophenyl)ethyl]amino}-4-(8-methylimidazo[1,2-a]pyridin-3-yl)pyrimidine-5-carbonitrile]: the half-maximal inhibitory concentration (IC50) – broadly, the concentration that inhibits the measured activity by half – in assay [1] turned out to be 47 nM. In the assay on HeLaS3 cells, the EC50 turned out to be 340 nM.
`C[C@H](Nc1ncc(Br)c(-c2cnc3c(Cl)cccn23)n1)c1ccccc1` [Example 28, 5-bromo-4-(8-chloroimidazo[1,2-a]pyridin-3-yl)-N-[(1S)-1-phenylethyl]-2-pyrimidinamine] registered an IC50 in assay [1] of 42 nM.
Consider `C[C@H](Nc1ncc(C#N)c(-c2cnc3c(C(F)(F)F)cccn23)n1)c1ccccc1` [Example 36, 2-{[(1S)-1-phenylethyl]amino}-4-[8-(trifluoromethyl)imidazo[1,2-a]pyridin-3-yl]-5-pyrimidinecarbonitrile], for which the midpoint of inhibition in assay [1], the IC50, lay at 16 nM. The EC50 with HeLaS3 cells came to 310 nM.
For `COc1cccn2c(-c3nc(N[C@@H](C)c4ccc(N5CCNCC5)cc4)ncc3C#N)cnc12` [Example 158, 4-(8-methoxyimidazo[1,2-a]pyridin-3-yl)-2-{[(1S)-1-(4-piperazin-1-ylphenyl)ethyl]amino}pyrimidine-5-carbonitrile] the same measures were 41 nM and 180 nM.
For the compound `Cc1cccn2c(-c3nc(N[C@@H](C)c4ccccc4)ncc3C#N)cnc12` [Example 8, 4-(8-methylimidazo[1,2-a]pyridin-3-yl)-2-{[(1S)-1-phenylethyl]amino}-5-pyrimidinecarbonitrile], the IC50 amounted to 43 nM at full-length human PLK1 and 26 nM in assay [1].

The values are drawn from patent US7718801B2, “Substituted imidazole derivative” (Banyu Pharmaceutical Co., Ltd., priority 2004, dated 2010).
